Source: ChEMBL document CHEMBL1154268, “Bioactive guanidine alkaloids from two Caribbean marine sponges” (J Nat Prod, 2009)

Tests used:
[1] = tested on: MDA-MB-231; experiment: Growth inhibition of human MDA-MB-231 cells by sulforhodamine B assay; format: functional; settings: for CC50: read-out: LC50 (the source's name)
[2] = tested on: A549; experiment: Growth inhibition of human A549 cells by sulforhodamine B assay; format: functional; settings: for CC50: read-out: LC50 (the source's name)
[3] = tested on: HT-29; experiment: Growth inhibition of human HT-29 cells by sulforhodamine B assay; format: functional
[4] = tested on: Plasmodium falciparum; experiment: Antimalarial activity against chloroquine-resistant Plasmodium falciparum FcB1/Columbia infected in human erythrocytes assessed as inhibition of [G-3H]hypoxanthine incorporation after 24 hrs by scintillation counting; format: functional, organism-based
[5] = tested on: HeLa; experiment: Cytotoxicity against human HeLa cells by sulforhodamine B assay; format: functional; settings: read-out: TC50 (the source's name)
[6] = Selective index, ratio of TC50 for human HeLa cells to IC50 for Plasmodium falciparum FcB1/Columbia; format: functional
[7] = tested on: Vero; experiment: Cytotoxicity against african green monkey Vero cells; format: cell-based; settings: chlorocebus sabaeus

| SMILES | GI50 [1] | TGI [1] | CC50 [1] | GI50 [2] | TGI [2] | CC50 [2] | GI50 [3] | LC50 (concentration killing 50% of cells) [3] | TGI [3] | IC50 [4] | CC50 [5] | Selectivity Index [6] | Activity [7] |
| --- | --- | --- | --- | --- | --- | --- | --- | --- | --- | --- | --- | --- | --- |
| CCCCCCCCC[C@@H]1C[C@@H]2CCc3c(C(=O)OCCCCNC(=N)N)c(CCCCC)nc([n+]32)N1 [DIHOMODEHYDROBATZELLADINE C] | 6.1 µM | 9.8 µM | 15.6 µM | 4.7 µM | 8.2 µM | 13.1 µM | 3.1 µM | 8.2 µM | 5.1 µM | 4.5 µM | – | – | – |
| CCCCCCCC[C@@H]1C[C@@H]2CC[C@H]3[C@@H](C(=O)OC(C)CCCCCCC[C@@H]4C[C@@H]5CC[C@@H]6C[C@H](C)NC(=N4)N65)[C@@H](C)N=C(N1)N23 (some centres undefined) [NORBATZELLADINE L] | 0.7 µM | 1.9 µM | 4.8 µM | 1.1 µM | 2.1 µM | 4.2 µM | 1.2 µM | 4 µM | 2.2 µM | 0.4 µM | – | – | – |
| CCCCCCCCC[C@@H]1C[C@@H]2CC[C@H]3[C@@H](C(=O)OC(C)CCCCCCC[C@@H]4C[C@@H]5CC[C@@H]6C[C@H](C)NC(=N4)N65)[C@@H](C)N=C(N1)N23 (some centres undefined) [BATZELLADINE L] | – | – | – | – | – | – | – | – | – | 0.3 µM | < 0.1 µM | <1 | – |
| CCCCCCC[C@@H]1C[C@@H]2CCc3c(C(=O)O)c(C)nc([n+]32)N1 [CLATHRIADIC ACID] | 13.5 µM | > 30 µM | > 30 µM | > 30 µM | > 30 µM | > 30 µM | > 30 µM | > 30 µM | > 30 µM | 2.3 µM | – | – | – |
| CCCCCCCC[C@@H]1C[C@@H]2CC[C@H]3[C@@H](C(=O)OCCCCCCCCC[C@H]4NC(=N)N5CCCC5=C4C(=O)OCCCCNC(=N)N)[C@@H](C)N=C(N1)N23 [NORBATZELLADINE A] | 3.8 µM | 6.4 µM | 11.4 µM | 2.1 µM | 4.6 µM | 8.6 µM | 1.6 µM | 5.7 µM | 3.2 µM | 0.2 µM | 4.7 µM | 23.5 | – |
| CCCCCCC[C@@H]1C[C@@H]2CC[C@H]3[C@@H](C(=O)OCCCCCCCCC[C@H]4NC(=N)N5CCCC5=C4C(=O)OCCCCNC(=N)N)[C@@H](C)N=C(N1)N23 [DINORBATZELLADINE A] | 3 µM | 3.8 µM | 4.6 µM | 4.9 µM | 5.1 µM | 5.4 µM | 1.9 µM | 7.6 µM | 4.2 µM | 0.9 µM | – | – | – |
| CCCCCCCCC[C@@H]1C[C@@H]2CC[C@H]3[C@@H](C(=O)OCCCCCCCCC[C@H]4NC(=N)N5CCCC5=C4C(=O)OCCCCNC(=N)N)[C@@H](C)N=C(N1)N23 [BATZELLADINE A] | – | – | – | – | – | – | – | – | – | 0.3 µM | 2.9 µM | 9.7 | – |
| CC[C@H]1CCCC[C@@]2(C[C@@H]3CC[C@@H]4[C@H](C(=O)OCCCCCCCCCCCCCCCC(=O)N(CCCN)CCCCN)[C@]5(CCC[C@@H](C)O5)NC(=[N+]34)N2)O1.[Cl-] [PTILOMYCALIN A] | – | – | – | – | – | – | – | – | – | 0.1 µM | 0.1 µM | 1.4 | Non-toxic |
| CCCCCCC[C@@H]1C[C@@H]2CCc3c(C(=O)OCCCCCCC[C@H]4NC(=N)N5CCCC5=C4C(=O)OCCCCNC(=N)N)c(C)nc([n+]32)N1 [DINORDEHYDROBATZELLADINE B] | – | – | – | 7.9 µM | > 14 µM | > 14 µM | 6.2 µM | > 14 µM | > 14 µM | 0.8 µM | – | – | – |
